# In patent US20260216169A1, “NAPHTHYLAMIDE COMPOUND, AND PREPARATION METHOD THEREFOR AND USE THEREOF” (SHENZHEN CHIPSCREEN BIOSCIENCES CO., LTD., priority 2022, published 2026):
# How the values were obtained:
# VEGFR2 = target: T1, VEGFR2 (Homo sapiens, UniProt P35968); test: HTRF KinEASE test against VEGFR2, reported as relative selectivity IC50-VEGFR2/IC50-Aurora B; format: biochemical; conditions: ratio of IC50 against VEGFR2 to IC50 against Aurora B
# T1 construct: purchased Carna 08-191
# Protocol: (§1) Preparation of working solutions of compounds in DMSO with gradient concentrations: 0.2 mM solutions of the compounds in DMSO were prepared and serially diluted with DMSO to form working solutions with 10 gradient concentrations (corresponding to final compound concentrations of 1000 nM, 300 nM, 100 nM, 30 nM, 10 nM, 3 nM, 1 nM, 0.3 nM, 0.1 nM, and 0.03 nM in the reaction system).
# (§2) Tests of inhibitory activity against Aurora B kinase and VEGFR2: The half maximal inhibitory concentrations (IC50) of the compounds against Aurora B kinase and VEGFR2 were determined using HTRF KinEASE-TK kit (Cisbio, Cat #62TKOPEC) and HTRF KinEASE-STK kit (Cisbio, Cat #61ST2BLE). A 2× kinase & Metal solution (Aurora B/Cat #05-102 and VEGFR2/Cat #08-191, both purchased from Carna) and a 2× Substrate & ATP solution (for Aurora B and VEGFR2, substrates S2 and TK were used, respectively) were prepared according to the kit instructions. The working solutions of the test compounds with gradient concentrations were added to a 384-well plate at 25 nL/well, and 2.5 μL of the 2× kinase & Metal solution was added to each well. The plate was sealed with a plate-sealing film, well shaken, centrifuged, and then incubated at 25° C. for 10 min. Then, the 2× Substrate & ATP solution was added at 2.5 μL/well, and the plate was incubated again at 25° C. for 30 min. Finally, a 2× XL665 & Antibody kinase detection reaction solution was added at 5 μL/well. After the plate was incubated at 25° C. for 60 min, the fluorescence signals at wavelengths of 665 nm and 620 nm in each well were measured by a microplate reader.
# (§3) The 665 nm/620 nm fluorescence signal ratio (X) of each well was calculated. With the compound-free well as a negative control (Y) and the enzyme-free well as a positive control (Z), the inhibition rate of the compound in each test well against the corresponding kinase was calculated using the formula: inhibition (%)=100%−(X−Z)/(Y−Z)×100%, and the half maximal inhibitory concentration (IC50) of each compound against the corresponding kinase was calculated by GraphPad 7.0 software.
# Aurora B kinase = Aurora B kinase (Homo sapiens, UniProt Q96GD4); test: HTRF KinEASE test of inhibitory activity against Aurora B kinase; format: biochemical; set-up: purchased Carna 05-102; conditions: Carna kinase, substrate S2
# Aurora B kinase, sequence (Q96GD4 whole entry): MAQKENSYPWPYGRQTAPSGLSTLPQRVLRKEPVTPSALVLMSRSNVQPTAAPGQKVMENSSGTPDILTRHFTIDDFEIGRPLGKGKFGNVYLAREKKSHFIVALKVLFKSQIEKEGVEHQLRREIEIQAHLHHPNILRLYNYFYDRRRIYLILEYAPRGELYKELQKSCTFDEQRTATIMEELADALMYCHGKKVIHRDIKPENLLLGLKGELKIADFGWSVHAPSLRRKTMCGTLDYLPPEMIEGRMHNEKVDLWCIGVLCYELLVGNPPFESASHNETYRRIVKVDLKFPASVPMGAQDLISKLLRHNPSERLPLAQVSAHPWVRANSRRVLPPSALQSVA
# Aurora B kinase, sequence (Q9NQS7 803-916 partner limits assumed): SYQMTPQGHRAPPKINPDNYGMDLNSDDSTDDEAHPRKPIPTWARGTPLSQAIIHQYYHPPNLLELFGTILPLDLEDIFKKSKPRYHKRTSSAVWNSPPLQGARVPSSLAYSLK
# Protocol: as §1, §2, §3
# [1] = Brain permeation assay in mice; format: in vivo; conditions: B/C, mouse, oral; female mice, 5 mg/kg intragastric, 4 h after administration; read-out: Brain permeation (ratio of compound concentration in brain tissue to concentration in plasma)
# Protocol: The objective of this example was to test whether the compounds of the present disclosure are able to cross the blood-brain barrier (BBB). The compounds of the present disclosure were dissolved in a vehicle containing 5% dimethyl sulfoxide, 60% 1,3-propanediol, and 35% purified water, and intragastrically administered to B/C female mice aged 6 weeks (purchased from Guangdong Medical Laboratory Animal Center) at 5 mg/kg. The animals were sacrificed 4 h after the administration, and blood and brain tissue samples were collected. The blood samples were anticoagulated with K2-EDTA and centrifuged at 5000 rpm for 5 min to separate plasma. The brain tissue samples were accurately weighed and homogenized with a certain amount of phosphate-buffered saline (PBS) solution, and the biological samples were stored at −80° C. before analysis. After sample extraction, the compound concentration was determined using a liquid chromatography-tandem mass spectrometry (LC-MS/MS) system. Brain permeation was defined as the ratio of the compound concentration in brain tissue to the concentration in plasma.
# Molt-4 cells = test: Effects on tumor cell cycle, PI staining and flow cytometry; format: cell-based, human; conditions: 48 h
# Source text: When the activity of Aurora B kinase is inhibited in tumor cells, the arrangement and separation of chromosomes are blocked, leading to cytokinesis failure and the formation of tetraploid or polyploid cells. Moreover, severe genomic instability and mitotic catastrophe result in apoptosis. The intracellular DNA content can be mapped with propidium iodide (PI), a fluorescent dye that specifically binds to nucleic acid, so that cell states can be distinguished into sub-G0/G1 (apoptosis), G0/G1, S, G2/M (tetraploid), and polyploid states.
# Experimental process: Molt-4 cells (human acute lymphoblastic leukemia cells, CRL-1582) were purchased from the American Type Culture Collection (ATCC). Molt-4 cells in the logarithmic growth phase were collected from suspension culture and counted. The cells were seeded into a 6-well plate at 10^6 cells/well and cultured overnight under normal conditions. The test compounds were prepared as 1 mM and 3 mM solutions in DMSO, and the solutions in DMSO were diluted 50-fold with culture medium. Finally, the above solutions were added to the culture system in a volume ratio of 1:19, achieving a final compound concentration of 1 μM or 3 μM in each well. After 48 h of incubation, the cells were collected by centrifugation. Each cell sample was resuspended in 300 μL of PBS, and the suspension was added dropwise to 700 μL of pre-cooled absolute ethanol. Then the mixture was gently inverted several times for thorough mixing to complete cell collection and fixation. The samples were left to stand at 4° C. for more than 12 h and then analyzed by flow cytometry.
# A working dye solution was prepared by homogeneously mixing PBS, a 10 mg/mL PI stock solution, and a 10 mg/mL RNase A solution in a ratio of 1000:5:2. The fixed cell samples were centrifuged at 4° C. and 1000 rpm for 10 min. The supernatants were completely removed using a pipette, and the cells were washed twice with PBS and resuspended in the above working dye solution at […]. After incubation in a dark place at 37° C. for 30 min, the cells were filtered using a 200-mesh stainless steel strainer, and the filtrate was loaded onto a flow cytometer for cell cycle analysis (10,000 cells counted per sample).
# Histograms showing DNA contents were obtained from the flow cytometry analysis, and the cell cycle distribution in each sample was analyzed using the flow cytometry data analysis software FlowJo. The mean (X) and standard deviation (SD) were calculated, and data were represented as X±SD. The apoptosis and the proportions of tetraploid and polyploid cells after Molt-4 cells were treated with different doses of the test compounds are shown in Table 3 below.
# T1 sequence (P35968 790-1356 limits assumed): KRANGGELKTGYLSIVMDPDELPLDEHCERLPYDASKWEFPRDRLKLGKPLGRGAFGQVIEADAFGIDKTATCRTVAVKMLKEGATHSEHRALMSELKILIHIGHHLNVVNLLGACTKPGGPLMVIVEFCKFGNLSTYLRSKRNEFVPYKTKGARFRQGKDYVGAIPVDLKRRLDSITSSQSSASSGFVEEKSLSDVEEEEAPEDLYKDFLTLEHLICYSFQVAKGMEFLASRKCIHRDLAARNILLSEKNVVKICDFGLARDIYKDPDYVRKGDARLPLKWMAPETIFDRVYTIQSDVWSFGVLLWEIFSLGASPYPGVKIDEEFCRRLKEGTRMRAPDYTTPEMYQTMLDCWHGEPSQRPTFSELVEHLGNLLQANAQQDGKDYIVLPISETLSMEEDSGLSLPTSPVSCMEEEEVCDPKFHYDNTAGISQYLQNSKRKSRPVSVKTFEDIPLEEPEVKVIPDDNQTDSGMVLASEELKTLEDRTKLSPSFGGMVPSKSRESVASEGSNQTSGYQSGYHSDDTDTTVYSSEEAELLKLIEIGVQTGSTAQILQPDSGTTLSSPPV
Structure (SMILES),Selectivity for Aurora B IC50-VEGFR2/IC50-Aurora B (VEGFR2),IC50 (Aurora B kinase),other results
O=C(NC1CC(F)(F)C1)c1cccc2cc(Oc3ccnc4cc(OCC(F)F)ccc34)ccc12 [Compound I-41],127.51,2.22 nM,–
CCOc1ccc2c(Oc3ccc4c(C(=O)Nc5ccc(F)c(F)c5N)cccc4c3)ccnc2c1 [Compound I-6],18.64,3.18 nM,–
COCCOc1ccc2c(Oc3ccc4c(C(=O)NC5CC(F)C5)cccc4c3)ccnc2c1 (stereo not drawn) [Compound I-27],10.23,0.896 nM,–
CCCOc1ccc2c(Oc3ccc4c(C(=O)Nc5ccc(F)cc5N)cccc4c3)ccnc2c1 [Compound I-12],5.12,19 nM,–
CN(C)CCOc1ccc2c(Oc3ccc4c(C(=O)NC5CC(F)(F)C5)cccc4c3)ccnc2c1 [Compound I-42],13.9,3.86 nM,–
CCOc1cc(F)c2c(Oc3ccc4c(C(=O)Nc5cccc(F)c5N)cccc4c3)ccnc2c1 [Compound I-18],9.75,6.89 nM,–
COCCOc1ccc2c(Oc3ccc4c(C(=O)NC5CC(F)(F)C5)cccc4c3)ccnc2c1 [Compound I-23],9.49,1.24 nM,–
CCOc1cc(F)c2c(Oc3ccc4c(C(=O)Nc5ccccc5N)cccc4c3)ccnc2c1 [Compound I-17],8.16,4.01 nM,Kp at 4 h [1]: 0.6
COc1cc(F)c2c(Oc3ccc4c(C(=O)Nc5ccc(F)c(F)c5N)cccc4c3)ccnc2c1 [Compound I-37],14.19,2.63 nM,Apoptosis (%) DNA < 2N (Molt-4 cells; dose 1 μM): 22.55 ± 0.21%; Polyploid (%) DNA > 4N (Molt-4 cells; dose 1 μM): 55.25 ± 5.02%; Tetraploid (%) DNA = 4N (Molt-4 cells; dose 1 μM): 4.68 ± 3.46%; Total (apoptosis + tetraploid + polyploid) (Molt-4 cells; dose 1 μM): 82.48; Apoptosis (%) DNA < 2N (Molt-4 cells; dose 3 μM): 23.75 ± 2.33%; Polyploid (%) DNA > 4N (Molt-4 cells; dose 3 μM): 53.75 ± 4.17%; Tetraploid (%) DNA = 4N (Molt-4 cells; dose 3 μM): 5.75 ± 3.15%; Total (apoptosis + tetraploid + polyploid) (Molt-4 cells; dose 3 μM): 83.25; Kp at 4 h [1]: 0.6
CCOc1ccc2c(Oc3ccc4c(C(=O)Nc5cc(F)c(F)c(F)c5N)cccc4c3)ccnc2c1 [Compound I-44],12.14,6.71 nM,–
Nc1c(NC(=O)c2cccc3cc(Oc4ccnc5cc(OCCF)ccc45)ccc23)ccc(F)c1F [Compound I-32],8.07,2.01 nM,–
CCOc1ccc2c(Oc3ccc4c(C(=O)Nc5ccccc5N)cccc4c3)ccnc2c1 [Compound I-1],–,–,Kp at 4 h [1]: 0.73
CCCOc1ccc2c(Oc3ccc4c(C(=O)Nc5ccccc5N)cccc4c3)ccnc2c1 [Compound I-11],0.78,33.9 nM,–
COc1cc(F)c2c(Oc3ccc4c(C(=O)Nc5ccc(F)c(Cl)c5N)cccc4c3)ccnc2c1 [Compound I-36],7.75,2.92 nM,–
COCCOc1ccc2c(Oc3ccc4c(C(=O)NC5CC6(COC6)C5)cccc4c3)ccnc2c1 [Compound I-24],109.61,1.7 nM,–
CCOc1cc(F)c2c(Oc3ccc4c(C(=O)Nc5cc(F)ccc5N)cccc4c3)ccnc2c1 [Compound I-20],–,–,Kp at 4 h [1]: 0.67
CCOc1ccc2c(Oc3ccc4c(C(=O)Nc5ccc(F)cc5N)cccc4c3)ccnc2c1 [Compound I-5],49.6,2.83 nM,–
O=C(NC1CC(F)(F)C1)c1cccc2cc(Oc3ccnc4cc(OCCF)ccc34)ccc12 [Compound I-33],376.79,2.65 nM,–
COc1ccc2c(Oc3ccc4c(C(=O)Nc5cc(F)c(F)c(F)c5N)cccc4c3)ccnc2c1 [Compound I-10],13.34,3.52 nM,–
COCCOc1ccc2c(Oc3ccc4c(C(=O)NC5CC6(CCC6)C5)cccc4c3)ccnc2c1 [Compound I-25],38.05,1.55 nM,–
CCCCOc1ccc2c(Oc3ccc4c(C(=O)Nc5ccc(C)cc5N)cccc4c3)ccnc2c1 [Compound I-14],18.84,53.1 nM,–
Nc1c(F)cccc1NC(=O)c1cccc2cc(Oc3ccnc4cc(OCCOC(F)F)cc(F)c34)ccc12 [Compound I-28],9.68,4.12 nM,–
CC(C)Oc1ccc2c(Oc3ccc4c(C(=O)Nc5ccccc5N)cccc4c3)ccnc2c1 [Compound I-7],0.17,417 nM,–
CCOc1ccc2c(Oc3ccc4c(C(=O)Nc5cc(F)ccc5N)cccc4c3)ccnc2c1 [Compound I-15],–,–,Kp at 4 h [1]: 0.76
CCCCOc1ccc2c(Oc3ccc4c(C(=O)Nc5ccccc5N)cccc4c3)ccnc2c1 [Compound I-13],0.27,127 nM,–
O=C(NC1CCCCC1)c1cccc2cc(Oc3ccnc4cc(OCCF)ccc34)ccc12 [Compound I-35],9.55,5.26 nM,–
CCOc1cc(F)c2c(Oc3ccc4c(C(=O)Nc5ccc(F)c(F)c5N)cccc4c3)ccnc2c1 [Compound I-19],9.08,5.62 nM,–
O=C(NC1CC(F)(F)C1)c1cccc2cc(Oc3ccnc4cc(OCCOC(F)F)ccc34)ccc12 [Compound I-21],12.27,2.12 nM,–
